Test results: ChEMBL document CHEMBL4000225, “A matrix-focused structure-activity and binding site flexibility study of quinolinol inhibitors of botulinum neurotoxin serotype A” (Bioorg Med Chem Lett, 2017)
Activity calls are given as the source filed them. The calls are words filed in the database; no cut-off is given here.

How the values were obtained:
[1] = biological target: Botulinum neurotoxin type A (Clostridium botulinum) (UniProt P0DPI0); assay: (§1) Inhibition of Clostridium botulinum Hall BoNT/A light chain-induced paralysis in CD1 mouse phrenic nerve diaphragm assessed as compound concentration required to cause delay in time to 50% loss of twitch tension evoked by nerve stimulation preincubated with BoNT/A light chain for 15 to 20 mins followed by addition to diaphragm; conditions: Clostridium botulinum A str. Hall
[2] = biological target: Botulinum neurotoxin type A (Clostridium botulinum, UniProt P0DPI0); assay: Inhibition of protease activity of recombinant full length Clostridium botulinum Hall BoNT/A light chain using SNAP-25 peptide (187 to 203 residues) as substrate after 5 mins by HPLC analysis; set-up: species or system Clostridium botulinum A str. Hall
[3] = biological target: Botulinum neurotoxin type A (Clostridium botulinum) (UniProt P0DPI0); assay: as §1, with “stimulation at 20 uM” for “stimulation”; conditions: Clostridium botulinum A str. Hall

Botulinum neurotoxin type A (Clostridium botulinum), sequence (P0DPI0 2-448 limits assumed): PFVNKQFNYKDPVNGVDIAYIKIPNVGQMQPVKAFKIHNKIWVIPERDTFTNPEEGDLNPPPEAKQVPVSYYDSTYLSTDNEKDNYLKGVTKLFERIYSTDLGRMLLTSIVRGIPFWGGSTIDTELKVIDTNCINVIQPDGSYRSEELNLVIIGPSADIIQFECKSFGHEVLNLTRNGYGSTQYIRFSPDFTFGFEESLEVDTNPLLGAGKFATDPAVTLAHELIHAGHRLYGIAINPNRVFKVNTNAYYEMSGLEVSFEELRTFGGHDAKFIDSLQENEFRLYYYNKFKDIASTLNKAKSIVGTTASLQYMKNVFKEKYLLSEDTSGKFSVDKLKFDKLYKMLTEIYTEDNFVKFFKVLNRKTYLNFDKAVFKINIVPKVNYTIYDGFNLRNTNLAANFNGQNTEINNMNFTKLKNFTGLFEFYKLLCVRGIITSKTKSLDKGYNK
Botulinum neurotoxin type A, sequence (P0DPI0 2-448 limits assumed): as above

| SMILES | Activity [1] [µM] | IC50 [2] [nM] | inhibition [3] |
| --- | --- | --- | --- |
| Cc1ccc2ccc(C(Nc3cccnc3)c3ccccc3)c(O)c2n1 (stereo not drawn) | 20 |  |  |
| Oc1c(C(Nc2ncccn2)c2ccc(F)cc2)ccc2cccnc12 (stereo not drawn) | 20 | 1700 |  |
| Cc1ccc2ccc(C(Nc3ccccn3)c3ccccc3)c(O)c2n1 (stereo not drawn) | 2 | 700 |  |
| Oc1c(C(Nc2ncccn2)c2ccc(F)cc2F)cc(Cl)c2cccnc12 (stereo not drawn) |  | 2200 | inactive |
| Oc1ccc(Cl)c2cccnc12 [CLOXYQUIN] |  | 1900 |  |
| Oc1c(C(Nc2ccccn2)c2ccc(F)cc2F)cc(Cl)c2cccnc12 (stereo not drawn) | 20 | 700 |  |
| Oc1c(C(Nc2ccccn2)c2ccc(F)cc2)ccc2cccnc12 (stereo not drawn) | 2 | 4100 |  |
| Oc1c(C(Nc2cccnc2)c2ccc(F)cc2)cc(Cl)c2cccnc12 (stereo not drawn) | 2 | 2300 |  |
| Nc1ccccn1 [2-AMINOPYRIDINE] |  | 1800 |  |
| Cc1ccc2ccc(C(Nc3ncccn3)c3ccccc3)c(O)c2n1 (stereo not drawn) |  | 4600 | inactive |
| Oc1c(C(Nc2ncccn2)c2ccccc2)ccc2cccnc12 (stereo not drawn) |  | 2700 | inactive |
| Cc1ccc2ccc(C(Nc3ccccn3)c3ccccc3F)c(O)c2n1 (stereo not drawn) | 2 | 1400 |  |
| Oc1c(C(Nc2cccnc2)c2ccccc2)ccc2cccnc12 (stereo not drawn) | 20 | 6200 |  |
| Oc1c(C(Nc2ccccn2)c2ccccc2)cc(Cl)c2cccnc12 (stereo not drawn) | 2 | 1500 |  |
| Oc1c(C(Nc2cccnc2)c2ccccc2F)cc(Cl)c2cccnc12 (stereo not drawn) | 2 | 700 |  |
| Cc1ccc2ccc(C(Nc3ccccn3)c3ccc(F)cc3F)c(O)c2n1 (stereo not drawn) | 20 | 2700 |  |
| Nc1cccnc1 |  | 3300 |  |
| Cc1ccc2ccc(C(Nc3ccccn3)c3ccc(F)cc3)c(O)c2n1 (stereo not drawn) | 20 | 1600 |  |
| Cc1ccc2ccc(C(Nc3ncccn3)c3ccc(F)cc3)c(O)c2n1 (stereo not drawn) | 20 | 4200 |  |
| Oc1c(C(Nc2ccccn2)c2ccccc2F)ccc2cccnc12 (stereo not drawn) | 20 | 1200 |  |
| Oc1c(C(Nc2ccccn2)c2ccccc2)ccc2cccnc12 (stereo not drawn) | 10 |  |  |
| Oc1c(C(Nc2ccccn2)c2ccccc2F)cc(Cl)c2cccnc12 (stereo not drawn) | 20 | 1400 |  |
| Cc1ccc2ccc(C(Nc3cccnc3)c3ccccc3F)c(O)c2n1 (stereo not drawn) | 20 | 700 |  |

| SMILES | Activity [1] [µM] | IC50 [2] [nM] | inhibition [3] |
| --- | --- | --- | --- |
| O=Cc1ccccc1F |  | 2800 |  |
| O=Cc1ccccc1 [BENZALDEHYDE] |  | 2900 |  |
| Nc1ncccn1 |  | 4600 |  |
| Oc1c(C(Nc2cccnc2)c2ccccc2F)ccc2cccnc12 (stereo not drawn) | 10 |  |  |
| Cc1ccc2ccc(C(Nc3cccnc3)c3ccc(F)cc3F)c(O)c2n1 (stereo not drawn) | 2 | 12300 |  |
| Oc1c(C(Nc2ncccn2)c2ccccc2)cc(Cl)c2cccnc12 (stereo not drawn) | 2 | 4500 |  |
| O=Cc1ccc(F)cc1 |  | 2300 |  |
| Oc1c(C(Nc2ncccn2)c2ccc(F)cc2)cc(Cl)c2cccnc12 (stereo not drawn) | 20 | 700 |  |
| Cc1ccc2cccc(O)c2n1 [8-HYDROXY QUINALDINE] |  | 3900 |  |
| Oc1c(C(Nc2ccccn2)c2ccc(F)cc2)cc(Cl)c2cccnc12 (stereo not drawn) | 20 | 600 |  |
| Oc1c(C(Nc2ncccn2)c2ccccc2F)ccc2cccnc12 (stereo not drawn) |  | 1900 | inactive |
| Oc1c(C(Nc2ncccn2)c2ccccc2F)cc(Cl)c2cccnc12 (stereo not drawn) | 2 | 4000 |  |
| Oc1c(C(Nc2cccnc2)c2ccc(F)cc2)ccc2cccnc12 (stereo not drawn) | 2 | 4600 |  |
| Oc1c(C(Nc2cccnc2)c2ccc(F)cc2F)ccc2cccnc12 (stereo not drawn) | 20 | 4400 |  |
| Oc1cccc2cccnc12 [OXYQUINOLINE] |  | 3900 |  |
| O=Cc1ccc(F)cc1F |  | 4900 |  |
| Oc1c(C(Nc2ncccn2)c2ccc(F)cc2F)ccc2cccnc12 (stereo not drawn) |  | 12700 | inactive |
| Cc1ccc2ccc(C(Nc3cccnc3)c3ccc(F)cc3)c(O)c2n1 (stereo not drawn) | 20 |  |  |
| Cc1ccc2ccc(C(Nc3ncccn3)c3ccc(F)cc3F)c(O)c2n1 (stereo not drawn) |  | 4300 | inactive |
| Oc1c(C(Nc2cccnc2)c2ccc(F)cc2F)cc(Cl)c2cccnc12 (stereo not drawn) | 20 | 600 |  |
| Cc1ccc2ccc(C(Nc3ncccn3)c3ccccc3F)c(O)c2n1 (stereo not drawn) |  | 12000 | inactive |
| Oc1c(C(Nc2ccccn2)c2ccc(F)cc2F)ccc2cccnc12 (stereo not drawn) | 20 | 3600 |  |
| Oc1c(C(Nc2cccnc2)c2ccccc2)cc(Cl)c2cccnc12 (stereo not drawn) | 2 | 3500 |  |
